Measurements taken from US20260297542A1, “HERBICIDE RESISTANT PLANTS” (SYNGENTA CROP PROTECTION AG, priority 2023, published 2026).
Changes are numbered by the printed parent chain.

Tests used:
Experiment in all cases: E. coli hemG growth inhibition by herbicide, AtPPO1 variant
Format in all cases: cell-based
Settings in all cases: read-out: percentage growth inhibition
AtPPO1 Y426C = biological target: T1, AtPPO1 Y426C (Arabidopsis thaliana, UniProt P55826, Y426C)
T1 construct: expressed in transfected cells; host or cells: E. coli BL21(DE3) hemG (pET24a, T7 promoter)
T1 sequence (P55826 35-537 Y426C): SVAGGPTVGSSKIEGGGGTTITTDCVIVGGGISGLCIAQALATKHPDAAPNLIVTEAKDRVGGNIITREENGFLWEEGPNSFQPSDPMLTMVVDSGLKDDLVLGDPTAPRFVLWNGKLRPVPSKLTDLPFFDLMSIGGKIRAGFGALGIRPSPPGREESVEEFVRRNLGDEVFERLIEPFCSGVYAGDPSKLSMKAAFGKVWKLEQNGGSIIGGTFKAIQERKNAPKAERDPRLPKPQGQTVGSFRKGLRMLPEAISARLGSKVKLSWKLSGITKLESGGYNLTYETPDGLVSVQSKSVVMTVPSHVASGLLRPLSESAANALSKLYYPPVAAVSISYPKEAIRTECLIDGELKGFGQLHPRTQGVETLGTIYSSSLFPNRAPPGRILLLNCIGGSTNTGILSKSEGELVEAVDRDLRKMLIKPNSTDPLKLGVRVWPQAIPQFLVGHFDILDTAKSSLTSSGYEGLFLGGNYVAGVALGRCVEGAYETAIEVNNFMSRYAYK
Outline: (§1)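 Read-out is OD600 at 24 h post inoculation, converted to percent growth inhibition relative to DMSO. The hemG-deleted BL21(DE3) host relied on the plasmid-borne AtPPO1 variant, induced with 0.1 mM IPTG, with 6.25 ppm herbicide 0 or E or 0.78 ppm herbicide B present at 37° C.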

AtPPO1 V447I = biological target: T2, AtPPO1 V447I (Arabidopsis thaliana, UniProt P55826, V447I)
T2 construct: expressed in transfected cells; host or cells: E. coli BL21(DE3) hemG (pET24a, T7 promoter)
T2 sequence (P55826 35-537 V447I): T1 sequence (P55826 35-537 Y426C) with C392Y, V413I
Outline: as §1

AtPPO1 L479M = biological target: T3, AtPPO1 L479M (Arabidopsis thaliana, UniProt P55826, L479M)
T3 construct: expressed in transfected cells; host or cells: E. coli BL21(DE3) hemG, pET24a plasmid
T3 sequence (P55826 35-537 L479M): T1 sequence (P55826 35-537 Y426C) with C392Y, L445M
Outline: as §1

AtPPO1 T431F = biological target: T4, AtPPO1 T431F (Arabidopsis thaliana, UniProt P55826, T431F)
T4 construct: expressed in transfected cells; host or cells: E. coli BL21(DE3) hemG, pET24a plasmid
T4 sequence (P55826 35-537 T431F): T1 sequence (P55826 35-537 Y426C) with C392Y, T397F
Outline: as §1

In the case of CC(C)N(C)S(=O)(=O)NC(=O)c1cc(-n2c(=O)cc(C(F)(F)F)n(C)c2=O)c(F)cc1Cl [Herbicide E, saflufenacil], the inhibition at 6.25 ppm (AtPPO1 Y426C) is reported as 4%, the inhibition at 6.25 ppm (AtPPO1 V447I) is reported as 61% and the inhibition at 6.25 ppm (AtPPO1 L479M) is reported as 28%. It also gave an inhibition at 6.25 ppm (AtPPO1 T431F) of 37%.

C#CCN1C(=O)C(F)(F)Oc2cc(F)c(-n3c(=O)n(C)c(=S)n(C)c3=O)cc21 [Herbicide B, trifludimoxazin] gave an inhibition at 0.78 ppm (AtPPO1 Y426C) of 2%, an inhibition at 0.78 ppm (AtPPO1 V447I) of 35% and an inhibition at 0.78 ppm (AtPPO1 L479M) of 29%. For the same compound, the inhibition at 0.78 ppm (AtPPO1 T431F) was 41%.

Compound CCOC(=O)[C@]1(C)CC(c2cc(-n3c(=O)n(C)c(=S)n(C)c3=O)c(F)cc2Cl)=NO1 [Herbicide D, ethyl (5S)-3-[2-chloro-5-(3,5-dimethyl-2,6-dioxo-4-thioxo-1,3,5-triazinan-1-yl)-4-fluoro-phenyl]-5-methyl-4H-isoxazole-5-carboxylate] has an inhibition at 6.25 ppm (AtPPO1 Y426C) of 34%, an inhibition at 6.25 ppm (AtPPO1 V447I) of 36% and an inhibition at 6.25 ppm (AtPPO1 L479M) of 4%. It also gave an inhibition at 6.25 ppm (AtPPO1 T431F) of 0%.
